Source: PMC5362913, “A new class of inhibitors of the AraC family virulence regulator Vibrio cholerae ToxT” (Scientific Reports, 2017)

Columns and labels:
[1] = tested on: V. cholerae classical strain O395; experiment: Autoagglutination assay of O395 cultures; assay type: cell-based, Vibrio cholerae
ToxT [2] = molecular target: T1, ToxT (Vibrio cholerae serotype O1, UniProt A5F384); assay type: biochemical; settings: for inhibition of ToxT DNA-binding in dose-response EMSA, compared with virstatin: compounds 10, 1, 0.1 μM, virstatin 100, 10, 1, 0.1 μM
T1 construct: made in house; host or cells: E. coli BL21-CodonPlus (DE3)-RIL
T1 sequence (A5F384 1-276): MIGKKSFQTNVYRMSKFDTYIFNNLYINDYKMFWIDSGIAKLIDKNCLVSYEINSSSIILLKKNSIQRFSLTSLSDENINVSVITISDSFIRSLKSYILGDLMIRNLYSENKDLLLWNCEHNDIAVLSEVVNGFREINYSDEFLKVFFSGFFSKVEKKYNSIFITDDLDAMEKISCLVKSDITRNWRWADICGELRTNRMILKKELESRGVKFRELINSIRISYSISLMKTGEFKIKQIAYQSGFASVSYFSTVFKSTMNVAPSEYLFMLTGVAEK

ToxT [3] = molecular target: T1, ToxT; experiment: Competition STD NMR with virstatin as indicator; assay type: binding; settings: 20 μM ToxT, 100 μM virstatin; based on KD of virstatin and decrease in STD signal; read-out: calculated Ki
Procedure: (§1) Virstatin was solubilized in DMSO-d6 and compounds 5a and 3b in DMSO, at working stock concentrations of 35.5 mM, 394 mM, and 50.5 mM, respectively. Purified ToxT in protein buffer (20 mM Tris, 1 mM EDTA, 320 mM NaCl, pH 7.5) was used at a final concentration of 20 μM. All samples contained 50 μM 3-(Trimethylsilyl)-1-propanesulfonic acid sodium salt (TSP) as an internal standard and 5% D2O. All NMR experiments were carried out on a Bruker Avance 600 MHz or 700 MHz spectrometer equipped with a TCI cryogenic probe. Samples were stored at 4 °C prior to acquisition.
Virstatin was used as the STD indicator at a concentration of 100 μM. Compounds 5a and 3b were added at concentrations of 20–200 μM. STD spectra were obtained as above, with a saturation time of 3 seconds. The calculation of the competitive inhibition was as follows[60]:
where CI is the concentration of inhibitor with unknown KD (compound 5a or 3b), CL is the concentration of ligand with known KD (virstatin), KD is that of virstatin, and i is the inhibition expressed as a fraction: [drawing 6] .

tcpA-lacZ = experiment: β-galactosidase reporter assay of tcpA-lacZ transcriptional fusion; assay type: cell-based, Vibrio cholerae; settings: 5 μM and 0.5 μM
ToxT [4] = molecular target: T1, ToxT; experiment: STD NMR determination of KD; assay type: binding
Procedure: as §1
KD determination followed the protocol outlined by Angulo et al.[57]. For on-resonance spectra, the protein was saturated at 500 Hz or 583.33 Hz for the 600 MHz and 700 MHz NMR spectrometers, respectively, for 1–4 seconds utilizing a train of 50 ms Gaussian pulses. For off-resonance spectra, the sample was irradiated at −2000 Hz. The total relaxation delay was 7 seconds. Data acquisition consisted of 128 scans and 32,768 points. The STD-effect was calculated by measuring the intensity of the virstatin aromatic proton peaks in the on- and off-resonance spectra:
The KD of virstatin was calculated using Michaelis-Menten kinetics. The STD-AF0 was plotted as a function of the ligand concentration to construct the binding (Langmuir) isotherm: […]

Cc1cccc2cccc(/C=C/CC(=O)O)c12 [3b]
autoagglutination of O395 cultures ([1]; 50 nM): inhibited
autoagglutination of O395 cultures ([1]; 0.5 μM): completely abolished detectable autoagglutination
inhibition of ToxT DNA-binding in dose-response EMSA, compared with virstatin (ToxT [2]): inhibited DNA-binding more strongly than virstatin
Ki (ToxT [3]): 10 µM

Cc1cccc2cccc(CCC(=O)O)c12 [4a]
autoagglutination of O395 cultures ([1]; 50 nM): inhibited
autoagglutination of O395 cultures ([1]; 0.5 μM): completely abolished detectable autoagglutination
inhibition of ToxT DNA-binding in dose-response EMSA, compared with virstatin (ToxT [2]): inhibited DNA-binding more strongly than virstatin

Cc1cccc2cccc(CCCC(=O)O)c12 [4b]
autoagglutination of O395 cultures ([1]; 50 nM): inhibited
autoagglutination of O395 cultures ([1]; 0.5 μM): completely abolished detectable autoagglutination
inhibition of ToxT DNA-binding in dose-response EMSA, compared with virstatin (ToxT [2]): inhibited DNA-binding more strongly than virstatin

Cc1cccc2c1C(CCC(=O)O)CCC2 (stereo not shown) [5a]
autoagglutination of O395 cultures ([1]; 50 nM): inhibited
autoagglutination of O395 cultures ([1]; 0.5 μM): completely abolished detectable autoagglutination
inhibition of ToxT DNA-binding in dose-response EMSA, compared with virstatin (ToxT [2]): inhibited DNA-binding more strongly than virstatin
Ki (ToxT [3]): 31 µM

CCCCCC/C=C\CCCCCCCC(=O)O [cis-palmitoleic acid, reference compound]
inhibition of tcpA transcription (relative β-galactosidase activity of tcpA-lacZ) (tcpA-lacZ): essentially no effect
autoagglutination of O395 cultures ([1]; 0.5 μM and 0.05 μM): no effect

CCCCCCCC/C=C\CCCCCCCC(=O)O [oleic acid, reference compound]
inhibition of tcpA transcription (relative β-galactosidase activity of tcpA-lacZ) (tcpA-lacZ): essentially no effect
autoagglutination of O395 cultures ([1]; 0.5 μM and 0.05 μM): no effect

O=C(O)CCCN1C(=O)c2cccc3cccc(c23)C1=O [virstatin, reference compound]
autoagglutination of O395 cultures ([1]; 0.5 μM): did not
ToxT binding to tcpA promoter DNA (EMSA) (ToxT [2]; 100 μM compound, 0.78 μM ToxT): prevented ToxT from binding DNA
Kd (ToxT [4]; from STD spectra of aromatic protons Ha,b): 483 ± 109 µM
Kd (ToxT [4]; from STD spectra of aromatic protons He,f): 331 ± 65 µM
